Paper PMC5464773 (eLife, 2017)
Like-named read-outs stand apart in the source and are kept apart here.

What was measured:
[1] = target: T1, Bcl-2 (Homo sapiens, UniProt P10415); experiment: Competition fluorescence polarization (anisotropy) with fluoresceinated BIM; format: binding
T1 construct: c-myc
Protocol: (§1) Plates were mixed at 23°C for 3 hr. Plates were read again at 24 to check equilibration. Experiments were done in at least triplicate.

[2] = target: T2, Bcl-w (Homo sapiens, UniProt Q92843); experiment: as above; format: binding
T2 construct: c-myc
T2 sequence (Q92843 1-193): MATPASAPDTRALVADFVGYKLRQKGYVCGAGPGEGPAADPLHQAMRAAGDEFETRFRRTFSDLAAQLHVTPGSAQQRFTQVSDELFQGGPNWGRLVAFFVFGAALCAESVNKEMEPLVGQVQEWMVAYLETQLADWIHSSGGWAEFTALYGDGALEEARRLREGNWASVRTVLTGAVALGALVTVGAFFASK
Protocol: as §1

[3] = target: T3, Bcl-xL (Homo sapiens, UniProt Q07817); experiment: as above; format: binding
T3 construct: c-myc
Protocol: as §1

[4] = tested on: BCR-ABL-expressing B-lineage acute lymphoblastic leukemia cells dependent on Bfl-1; experiment: BH3 profiling, mitochondrial depolarization (JC-1) in permeabilized cells; format: cell-based; design: key to Bottom (best-fit value) / Top (best-fit value): % depolarization, normalized to DMSO (0) and FCCP (100) controls; details: for mitochondrial depolarization pattern in BH3 profiling: 100 nM peptide, four cell lines engineered to depend on Bcl-2, Bcl-xL, Mcl-1 or Bfl-1, JC-1; for HillSlope (best-fit value) / Bottom (best-fit value) / Top (best-fit value) / LogEC50 (best-fit value): BH3 profiling fits Bfl-1, sigmoidal dose-response (variable slope); for Bottom (best-fit value): constraint Bottom < 5; for Top (best-fit value): constraint Top > 78; for LogEC50 (best-fit value): x = Log [Peptide] M, 55-56 Y values analyzed
Protocol: (§2) Cell line identities were confirmed by STR profiling.
Peptides were titrated by serial dilution in MEB buffer (150 mM Mannitol, 10 mM HEPES-KOH pH 7.5, 50 mM KCl, 0.02 mM EGTA, 0.02 mM EDTA, 0.1% BSA and 5 mM Succinate) containing 20 μg/mL oligomycin, 50 μg/mL digitonin, 2 μM JC-1 and 10 mM 2-mercaptoethanol in 384-well plates. Controls for no depolarization (1% DMSO) and complete depolarization with the mitochondrial oxidative phosphorylation uncoupler FCCP (20 μM) were included for data normalization. […] 15 μL of cell suspension was added to each well containing 15 μL of treatment solution. […] To produce percent depolarization, the area under the resultant curve was calculated and normalized to the assay controls. Peptide titration curves were fit to sigmoidal dose-response curves using Graphpad PRISM seven to obtain EC50 values.

[5] = tested on: BCR-ABL-expressing B-lineage acute lymphoblastic leukemia cells dependent on Bcl-2; experiment: as above; format: cell-based; details: BH3 profiling fits Bcl-2, sigmoidal dose-response (variable slope); for Bottom (best-fit value): constrained (Bottom < 5 or 0 < Bottom < 5); for Top (best-fit value): constrained (Top > 78 or Top < 100); for LogEC50 (best-fit value): x = Log [Peptide] M, fits ambiguous or hit constraint
Protocol: We tested our designed peptides for Bfl-1 selective targeting by carrying out BH3 profiling of cells with known dependencies on anti-apoptotic proteins. In this assay, peptides are titrated into permeabilized cells, and mitochondrial depolarization is measured using the voltage-sensitive dye JC-1 (Figure 7A) ([Deng et al., 2007]). We tested the apoptotic sensitivity of BCR-ABL-expressing B-lineage acute lymphoblastic leukemia cell lines engineered to depend on Bcl-2, Bcl-xL, Mcl-1 or Bfl-1 overexpression for survival ([Koss et al., 2016]). […] EC50 values for inducing mitochondrial permeabilization in the engineered cell lines agreed well with trends in Bfl-1-binding affinities, as expected based on the mechanism of action (Figure 7C).
The creation and characterization of the BCR-ABL-expressing B-lineage acute lymphoblastic leukemia suspension cell lines with engineered dependencies on human versions of anti-apoptotic genes is detailed in [Koss et al. (2016)]). Cells were grown in RPMI (Life Technologies, Carlsbad, CA) with 10% fetal bovine serum, 2 mM L-glutamine, 10 mL/L 100x Pen/Strep (Life Technologies # 15140122), 25 mM HEPES and 10 mL/L 100x NEAA (Life Technologies, 11140050). The adherent cell lines PC-3 (RRID: CVCL_0035) and SF295 (RRID: CVCL_1690) are from the NCI60 panel ([Lorenzi et al., 2009]) and were grown in RPMI (Life Technologies) with 10% fetal bovine serum, 2 mM L-glutamine and 10 mL/L 100x Pen/Strep (Life Technologies # 15140122 ). Cell line identities were confirmed by STR profiling. The Lookout Mycoplasma PCR detection kit (Sigma) was used to detect mycoplasma infection. Mycoplasma was only detected in the PC-3 cell line, and internal controls were used to account for this phenotype.
Peptides were titrated by serial dilution in MEB buffer (150 mM Mannitol, 10 mM HEPES-KOH pH 7.5, 50 mM KCl, 0.02 mM EGTA, 0.02 mM EDTA, 0.1% BSA and 5 mM Succinate) containing 20 μg/mL oligomycin, 50 μg/mL digitonin, 2 μM JC-1 and 10 mM 2-mercaptoethanol in 384-well plates. Controls for no depolarization (1% DMSO) and complete depolarization with the mitochondrial oxidative phosphorylation uncoupler FCCP (20 μM) were included for data normalization. Cells were suspended at 1.67 × 10^6 cells/mL in MEB. 15 μL of cell suspension was added to each well containing 15 μL of treatment solution. Fluorescence emission was measured every 5 min for 3 hr at […] with 525 nm excitation on a Tecan Safire2. To produce percent depolarization, the area under the resultant curve was calculated and normalized to the assay controls. Peptide titration curves were fit to sigmoidal dose-response curves using Graphpad PRISM seven to obtain EC50 values.

[6] = tested on: PC-3 cells; experiment: iBH3, cytochrome c release in unprimed cells (BAK/BAX activator function); format: cell-based; details: for peptide concentration leading to cytochrome c release in unprimed cells: PC-3, unprimed, iBH3, 25°C, 1 hr; for LogEC50 (best-fit value) / HillSlope (best-fit value) / Bottom (best-fit value) / Top (best-fit value): iBH3 fit PC-3, sigmoidal dose-response (variable slope); for LogEC50 (best-fit value): log of EC50, x axis Log [Peptide M]; for Bottom (best-fit value) / Top (best-fit value): fit of 4 replicates
Protocol: (§3) To test the possibility that FS1, FS2 or FS3 may directly activate BAK and BAX, we measured cytochrome c release in two ‘unprimed’ cell lines (PC-3 and SF295). Unprimed cells require BAK/BAX activators to release cytochrome c ([Certo et al., 2006]).
as §2
(§4) Plates were incubated at 25°C for 1 hr.

[7] = tested on: SF295 cells; format: cell-based; details: for peptide concentration leading to cytochrome c release in unprimed cells: SF295, unprimed, iBH3, 25°C, 1 hr; for Bottom (best-fit value) / HillSlope (best-fit value) / Top (best-fit value) / LogEC50 (best-fit value): SF295 cells, iBH3 fit, sigmoidal dose-response (variable slope); for LogEC50 (best-fit value): log of peptide concentration in M
Protocol: as §3, §2, §4

[8] = competition FP source data, mean of three replicates, values above 5 μM are reported as > 5 μM in the figures, read-out: mean Ki (M) Bcl-2
[9] = competition FP source data, replicate 1
[10] = competition FP source data, replicate 2
[11] = competition FP source data, replicate 3
[12] = competition FP source data, mean of three replicates, values above 5 μM are reported as > 5 μM in the figures, read-out: mean Ki (M) Bcl-w
[13] = competition FP source data, mean of three replicates, values above 5 μM are reported as > 5 μM in the figures, read-out: mean Ki (M) Bcl-xL
[14] = competition FP, 50 nM c-myc-tagged receptor + 25 nM fluoresceinated BIM, Tris pH 7.8, 23°C, 3 hr, mean ± SD of three replicates, read-out: Ki (nM) Bcl-w

T3 sequence (Q07817 whole entry): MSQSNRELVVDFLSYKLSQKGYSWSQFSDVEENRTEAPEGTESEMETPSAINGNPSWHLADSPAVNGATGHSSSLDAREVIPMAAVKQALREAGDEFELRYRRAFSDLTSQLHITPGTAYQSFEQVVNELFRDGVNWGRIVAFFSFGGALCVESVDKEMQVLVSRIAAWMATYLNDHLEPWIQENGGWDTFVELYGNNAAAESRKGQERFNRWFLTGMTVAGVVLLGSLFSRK
T1 sequence (P10415 whole entry): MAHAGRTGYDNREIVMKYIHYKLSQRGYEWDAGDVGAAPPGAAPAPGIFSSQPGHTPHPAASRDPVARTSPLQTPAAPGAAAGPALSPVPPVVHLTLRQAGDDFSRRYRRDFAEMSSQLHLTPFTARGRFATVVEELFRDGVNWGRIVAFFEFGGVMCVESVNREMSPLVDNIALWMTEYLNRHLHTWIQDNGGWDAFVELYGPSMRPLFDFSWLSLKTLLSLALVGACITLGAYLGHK

Ki [1, 8] [M] | Ki (M) Bcl-2 [1, 9] [M] | Ki (M) Bcl-2 [1, 10] [M] | Ki (M) Bcl-2 [1, 11] [M] | Ki [2, 12] [M] | Ki (M) Bcl-w [2, 9] [M] | Ki (M) Bcl-w [2, 10] [M] | Ki (M) Bcl-w [2, 11] [M] | Ki [3, 13] [M] | Ki (M) Bcl-xL [3, 9] [M] | Ki (M) Bcl-xL [3, 10] [M] | Ki (M) Bcl-xL [3, 11] [M] | Substance | mitochondrial depolarization pattern in BH3 profiling [4] | HillSlope (best-fit value) [4] | Bottom (best-fit value) [4] | Top (best-fit value) [4] | LogEC50 (best-fit value) [4] | HillSlope (best-fit value) [5] | Bottom (best-fit value) [5] | Top (best-fit value) [5] | also measured
2.06e-06 | 1.85e-06 | 2.41e-06 | 1.93e-06 | 7.67e-07 | 7.55e-07 | 8.54e-07 | 6.93e-07 | 3.23e-07 | 2.75e-07 | 4.23e-07 | 2.72e-07 | Ac-QWIREIAAGLRRFADILNAQVER-NH2 [FS3] | promoted depolarization only in Bfl-1 dependent cells | 0.653 | 0.004086 | 83.65 | -8.381 | 1.964 | ~ 5 | ~ 100 | specificity in BH3 profiling ([4]; four engineered cell lines, FS3 statement holds for JC-1 BH3 profiling and iBH3): significant cross reactivity at 30 μM; LogEC50 (best-fit value) [5]: -5.077; peptide concentration leading to cytochrome c release in unprimed cells [6]: 30 to 100 µM; LogEC50 (best-fit value) [6]: -4.638; HillSlope (best-fit value) [6]: 2.225; Bottom (best-fit value) [6]: 0.07242; Top (best-fit value) [6]: 1.062; peptide concentration leading to cytochrome c release in unprimed cells [7]: 30 to 100 µM; Bottom (best-fit value) [7]: 0.0773; HillSlope (best-fit value) [7]: 2.539; Top (best-fit value) [7]: 1.042; LogEC50 (best-fit value) [7]: -4.873
5.31e-06 | 8.37e-06 | 4.66e-06 | 2.9e-06 | 7.76e-06 | 5.7e-06 | 7.42e-06 | 1.02e-05 | 2.38e-06 | 2.02e-06 | 2.84e-06 | 2.27e-06 | Ac-QWVREIAAGLRLAADNVNAQLER-NH2 [FS1] | promoted depolarization only in Bfl-1 dependent cells | 0.8486 | 1.325 | 81.21 | -7.974 | 0.3224 | ~ 5 | ~ 78 | Ki ([1]; competition FP, 50 nM c-myc-tagged receptor + 25 nM fluoresceinated BIM, Tris pH 7.8, 23°C, 3 hr, mean ± SD of three replicates, read-out: Ki (nM) Bcl-2): > 5e-06 M; Ki [2, 14]: > 5e-06 M; LogEC50 (best-fit value) [5]: ~ -2.821; peptide concentration leading to cytochrome c release in unprimed cells [6]: > 100 µM; LogEC50 (best-fit value) [6]: ~ -3.754; HillSlope (best-fit value) [6]: ~ -10.78; Bottom (best-fit value) [6]: ~ -63.64; Top (best-fit value) [6]: 0.1; peptide concentration leading to cytochrome c release in unprimed cells [7]: > 100 µM; Bottom (best-fit value) [7]: ~ -0.1825; HillSlope (best-fit value) [7]: ~ -14.56; Top (best-fit value) [7]: 0.01448; LogEC50 (best-fit value) [7]: ~ -4.046

Substance | Ki [1, 8] [M] | Ki (M) Bcl-2 [1, 9] [M] | Ki (M) Bcl-2 [1, 10] [M] | Ki (M) Bcl-2 [1, 11] [M] | Ki [2, 12] [M] | Ki (M) Bcl-w [2, 9] [M] | Ki (M) Bcl-w [2, 10] [M] | Ki (M) Bcl-w [2, 11] [M] | Ki [3, 13] [M] | Ki (M) Bcl-xL [3, 9] [M] | Ki (M) Bcl-xL [3, 10] [M] | Ki (M) Bcl-xL [3, 11] [M] | mitochondrial depolarization pattern in BH3 profiling [4] | HillSlope (best-fit value) [4] | Bottom (best-fit value) [4] | Top (best-fit value) [4] | LogEC50 (best-fit value) [4] | HillSlope (best-fit value) [5] | Bottom (best-fit value) [5] | Top (best-fit value) [5] | also measured
Ac-QWVREIAAGLRRAADDVNAQVER-NH2 [FS2] | 2.41e-06 | 2.55e-06 | 2.86e-06 | 1.82e-06 | 8.27e-06 | 1.14e-05 | 6.45e-06 | 6.96e-06 | 7.07e-06 | 6.54e-06 | 1e-05 | 4.66e-06 | promoted depolarization only in Bfl-1 dependent cells | 0.7703 | 0.97 | 84.17 | -7.679 | 1.067 | ~ 5 | ~ 100 | Ki [2, 14]: > 5e-06 M; Ki ([3]; competition FP, 50 nM c-myc-tagged receptor + 25 nM fluoresceinated BIM, Tris pH 7.8, 23°C, 3 hr, mean ± SD of three replicates, read-out: Ki (nM) Bcl-xL): > 5e-06 M; LogEC50 (best-fit value) [5]: -4.482; peptide concentration leading to cytochrome c release in unprimed cells [6]: > 100 µM; peptide concentration leading to cytochrome c release in unprimed cells [7]: > 100 µM
